Assay results reported in patent publication US4211772A, “Benzopyran glycoside acetals and ketals” (Laboratoires Sarget, priority 1977, dated 1980).
In brackets after ≈: the same amount, converted by molar mass. Read-outs that look alike come from different tables or passages of the source.

What was measured:
[1] = Solubilities in water; type: physicochemical; conditions: water; read-out: Solubilities in water
[2] = target: T1, Aldose Reductase (Bos taurus, UniProt P16116); test: Inhibition of aldose reductase in vitro (enzyme from beef eye lenses, glyceraldehyde substrate); type: biochemical; conditions: in DMF solution, read-out: percentages of inhibition (aldose reductase)
T1 construct: The enzyme is extracted from beef eye lenses; from tissue; host or cells: beef eye lenses
From the text: Inhibition of Aldose Reductase In Vitro
The reoxidation of NADPH coupled to the enzymatic reaction was followed spectrophotometrically at 340 nm.

[3] = system: capillary resistance; test: Capillaroprotecting effects: capillary resistance; type: in vivo, male OFA EOPS rats
Description: (§1) Capillaroprotecting effects
The capillary resistance was determined by a variant of the method of Charlier et al, Arch. Inter. Physiol.

[4] = system: Wistar EOPS rat; test: Minimum lethal dose by slow i.v. perfusion in the rat; type: in vivo
Description: The minimum lethal dose of compound No. 1 administered by slow i.v. perfusion in the Wistar EOPS rat is in the neighborhood of 15 mg/kg/min. for 30 min.

[5] = system: carragenin edema; test: Anti-inflammatory activity: carragenin edema test; type: in vivo; conditions: for % inhibition of carragenin edema: borate buffer pH 7, 24 h; for inhibition in vivo at 100 mg/kg / inhibition in vivo at 200 mg/kg / inhibition in vivo at 300 mg/kg / inhibition in vivo at 75 mg/kg / inhibition in vivo at 150 mg/kg: Rattus norvegicus, ip
Method in brief: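 Male Wistar EOPS rats receive 0.1 ml of 5% carragenin suspension in physiological serum into the hind-paw metatarsal muscle, with test substance given i.p. in neutralized solution at the same time. Paw edema is measured by plethysmometry at several times after carragenin and reported as % inhibition against pH-matched physiological serum controls.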

[6] = system: galactosemic cataract; test: Galactosemic cataract in rats; type: in vivo, weaning male EOPS Wistar rats; conditions: 100 mg/kg/d i.p.
Description: GALACTOSEMIC CATARACT IN RATS
The study was conducted using weaning male EOPS Wistar rats having an initial weight of between 45 and 50 g. The animals were fed a high vitamin and high protein regimen containing 20% by weight of galactose. The first signs of cataracts, detected by the ophthalmoscope, appeared beginning with the third day. The animals received daily i.p. doses of the test compound, the treatment being started four days after the commencement of the galactosemic regimen. The evolution of the cataract was followed by the detection of maroon rings visible in the ophthalmoscope. These rings appeared on the external edge of the lens and progressed little by little to its center. Anatomopathological studies of the lenses confirmed that these brown rings correspond well to the characteristic histological lesions of galactosemic cataracts. Photographs taken with the aid of a retinograph facilitated the comparison of the evolution of the lesions.
Statistical calculations according to the .chi.^2 method permit an evaluation of the significance of the results obtained for each of the treatments compared to those for non-treated animals.

[7] = system: capillary permeability; test: Capillaroprotecting effects: capillary permeability; type: in vivo, conventional male Wistar rats
Description: as §1
The capillary permeability was determined by the method of Charlier et al, Arch. Inter. Physiol.

C[C@@H]1O[C@@H](OC[C@H]2O[C@@H](Oc3c(-c4ccc(O)c(O)c4)oc4cc(O)cc(O)c4c3=O)[C@H](O)[C@@H](O)[C@@H]2O)[C@@H]2OC(C)(C)O[C@@H]2[C@H]1O [No. 1, 3-O-(2,3-O,O-isopropylidene-6-α-L-rhamnosyl-β-D-glucosyl)-quercetin]
solubility [1]: 7000 µg/mL (≈ 10.8 mM) | inhibition at 100 µM ([2]; 10^-4 mole/l): 82% | inhibition at 10 µM ([2]; 10^-5 mole/l): 32% | % of animals for which the effect is ≥ 25 u cm Hg/h ([3]; 100 mg/kg i.p.): 50% | capillary resistance, effect observed ([3]; 100 mg/kg i.p.): 21.5 ± 4.6 u cm Hg/h | % of animals for which the effect is ≥ 25 u cm Hg/h ([3]; 200 mg/kg i.p.): 90% | capillary resistance, effect observed ([3]; 200 mg/kg i.p.): 41.25 ± 15.3 u cm Hg/h | arterial pressure and cardiac frequency, time of maximum [4]: attain their maximum values at the twelfth minute of the perfusion | cause of death [4]: death occurs by respiratory arrest | hemodynamic effects [4]: brief, low intensity hypotension is observed accompanied by bradycardia | minimum lethal dose ([4]; for 30 min): ~15 mg/kg/min | % inhibition of carragenin edema ([5]; 75 mg/kg i.p.): 5% | % inhibition of carragenin edema ([5]; 150 mg/kg i.p.): 21% | % inhibition of carragenin edema ([5]; 200 mg/kg i.p.): 0% | inhibition in vivo at 100 mg/kg ([5]; 100 mg/kg i.p., physiological serum, 1/2 h, read-out: % inhibition of carragenin edema): 33% | inhibition in vivo at 200 mg/kg ([5]; 200 mg/kg i.p., physiological serum, 1/2 h, read-out: % inhibition of carragenin edema): 0% | inhibition in vivo at 300 mg/kg ([5]; 300 mg/kg i.p., physiological serum, 1/2 h, read-out: % inhibition of carragenin edema): 30% | inhibition in vivo at 75 mg/kg ([5]; 1 h, pH 7, read-out: % inhibition of carragenin edema, 75 mg/kg i.p., borate buffer pH 7, 1 h): 18% | inhibition in vivo at 75 mg/kg ([5]; 1 h, pH 7, read-out: % inhibition of carragenin edema, 75 mg/kg i.p., borate buffer pH 7, 1 h 1/2): 29% | inhibition in vivo at 150 mg/kg ([5]; 1 h, pH 7, read-out: % inhibition of carragenin edema, 150 mg/kg i.p., borate buffer pH 7, 1 h): 25% | inhibition in vivo at 150 mg/kg ([5]; 1 h, pH 7, read-out: % inhibition of carragenin edema, 150 mg/kg i.p., borate buffer pH 7, 1 h 1/2): 40% | inhibition in vivo at 200 mg/kg ([5]; 1 h, pH 7, read-out: % inhibition of carragenin edema, 200 mg/kg i.p., borate buffer pH 7, 1 h): 16% | inhibition in vivo at 200 mg/kg ([5]; 1 h, pH 7, read-out: % inhibition of carragenin edema, 200 mg/kg i.p., borate buffer pH 7, 1 h 1/2): 37% | inhibition in vivo at 100 mg/kg ([5]; 1 h, read-out: % inhibition of carragenin edema, 100 mg/kg i.p., physiological serum, 1 h): 24% | inhibition in vivo at 200 mg/kg ([5]; 1 h, read-out: % inhibition of carragenin edema, 200 mg/kg i.p., physiological serum, 1 h): 0% | inhibition in vivo at 300 mg/kg ([5]; 1 h, read-out: % inhibition of carragenin edema, 300 mg/kg i.p., physiological serum, 1 h): 37% | inhibition in vivo at 75 mg/kg ([5]; 2 h, pH 7, read-out: % inhibition of carragenin edema, 75 mg/kg i.p., borate buffer pH 7, 2 h): 23% | inhibition in vivo at 150 mg/kg ([5]; 2 h, pH 7, read-out: % inhibition of carragenin edema, 150 mg/kg i.p., borate buffer pH 7, 2 h): 34% | inhibition in vivo at 200 mg/kg ([5]; 2 h, pH 7, read-out: % inhibition of carragenin edema, 200 mg/kg i.p., borate buffer pH 7, 2 h): 38% | inhibition in vivo at 100 mg/kg ([5]; 2 h, read-out: % inhibition of carragenin edema, 100 mg/kg i.p., physiological serum, 2 h): 5% | inhibition in vivo at 200 mg/kg ([5]; 2 h, read-out: % inhibition of carragenin edema, 200 mg/kg i.p., physiological serum, 2 h): 8% | inhibition in vivo at 300 mg/kg ([5]; 2 h, read-out: % inhibition of carragenin edema, 300 mg/kg i.p., physiological serum, 2 h): 8% | inhibition in vivo at 75 mg/kg ([5]; 3 h, pH 7, read-out: % inhibition of carragenin edema, 75 mg/kg i.p., borate buffer pH 7, 3 h): 20% | inhibition in vivo at 150 mg/kg ([5]; 3 h, pH 7, read-out: % inhibition of carragenin edema, 150 mg/kg i.p., borate buffer pH 7, 3 h): 26% | inhibition in vivo at 200 mg/kg ([5]; 3 h, pH 7, read-out: % inhibition of carragenin edema, 200 mg/kg i.p., borate buffer pH 7, 3 h): 30% | inhibition in vivo at 100 mg/kg ([5]; 3 h, read-out: % inhibition of carragenin edema, 100 mg/kg i.p., physiological serum, 3 h): 7% | inhibition in vivo at 200 mg/kg ([5]; 3 h, read-out: % inhibition of carragenin edema, 200 mg/kg i.p., physiological serum, 3 h): 8% | inhibition in vivo at 300 mg/kg ([5]; 3 h, read-out: % inhibition of carragenin edema, 300 mg/kg i.p., physiological serum, 3 h): 16% | inhibition in vivo at 75 mg/kg ([5]; 4 h, pH 7, read-out: % inhibition of carragenin edema, 75 mg/kg i.p., borate buffer pH 7, 4 h): 14% | inhibition in vivo at 150 mg/kg ([5]; 4 h, pH 7, read-out: % inhibition of carragenin edema, 150 mg/kg i.p., borate buffer pH 7, 4 h): 19% | inhibition in vivo at 200 mg/kg ([5]; 4 h, pH 7, read-out: % inhibition of carragenin edema, 200 mg/kg i.p., borate buffer pH 7, 4 h): 21% | inhibition in vivo at 100 mg/kg ([5]; 4 h, read-out: % inhibition of carragenin edema, 100 mg/kg i.p., physiological serum, 4 h): 16% | inhibition in vivo at 200 mg/kg ([5]; 4 h, read-out: % inhibition of carragenin edema, 200 mg/kg i.p., physiological serum, 4 h): 12% | inhibition in vivo at 300 mg/kg ([5]; 4 h, read-out: % inhibition of carragenin edema, 300 mg/kg i.p., physiological serum, 4 h): 27% | inhibition in vivo at 75 mg/kg ([5]; 5 h, pH 7, read-out: % inhibition of carragenin edema, 75 mg/kg i.p., borate buffer pH 7, 5 h): 25% | inhibition in vivo at 150 mg/kg ([5]; 5 h, pH 7, read-out: % inhibition of carragenin edema, 150 mg/kg i.p., borate buffer pH 7, 5 h): 27% | inhibition in vivo at 200 mg/kg ([5]; 5 h, pH 7, read-out: % inhibition of carragenin edema, 200 mg/kg i.p., borate buffer pH 7, 5 h): 30% | inhibition in vivo at 100 mg/kg ([5]; 5 h, read-out: % inhibition of carragenin edema, 100 mg/kg i.p., physiological serum, 5 h): 20% | inhibition in vivo at 200 mg/kg ([5]; 5 h, read-out: % inhibition of carragenin edema, 200 mg/kg i.p., physiological serum, 5 h): 15% | inhibition in vivo at 300 mg/kg ([5]; 5 h, read-out: % inhibition of carragenin edema, 300 mg/kg i.p., physiological serum, 5 h): 30% | inhibition in vivo at 75 mg/kg ([5]; 6 h, pH 7, read-out: % inhibition of carragenin edema, 75 mg/kg i.p., borate buffer pH 7, 6 h): 17% | inhibition in vivo at 150 mg/kg ([5]; 6 h, pH 7, read-out: % inhibition of carragenin edema, 150 mg/kg i.p., borate buffer pH 7, 6 h): 28% | inhibition in vivo at 200 mg/kg ([5]; 6 h, pH 7, read-out: % inhibition of carragenin edema, 200 mg/kg i.p., borate buffer pH 7, 6 h): 18% | inhibition in vivo at 100 mg/kg ([5]; 6 h, read-out: % inhibition of carragenin edema, 100 mg/kg i.p., physiological serum, 6 h): 7% | inhibition in vivo at 200 mg/kg ([5]; 6 h, read-out: % inhibition of carragenin edema, 200 mg/kg i.p., physiological serum, 6 h): 9% | inhibition in vivo at 300 mg/kg ([5]; 6 h, read-out: % inhibition of carragenin edema, 300 mg/kg i.p., physiological serum, 6 h): 27% | inhibition in vivo at 75 mg/kg ([5]; read-out: % inhibition of carragenin edema, 75 mg/kg i.p., borate buffer pH 7, 1/2 h): 18% | inhibition in vivo at 150 mg/kg ([5]; read-out: % inhibition of carragenin edema, 150 mg/kg i.p., borate buffer pH 7, 1/2 h): 15% | inhibition in vivo at 200 mg/kg ([5]; read-out: % inhibition of carragenin edema, 200 mg/kg i.p., borate buffer pH 7, 1/2 h): 9% | percentage of animals which have not yet shown the appearance of cataracts ([6]; day 0): 100% | percentage of animals which have not yet shown the appearance of cataracts ([6]; day 1): 100% | percentage of animals which have not yet shown the appearance of cataracts ([6]; day 2): 87.5% | percentage of animals which have not yet shown the appearance of cataracts ([6]; day 3): 81% | percentage of animals which have not yet shown the appearance of cataracts ([6]; day 4): 50% | significance compared to non-treated animals (chi^2) ([6]; day 4): S | percentage of animals which have not yet shown the appearance of cataracts ([6]; day 5): 37.5% | significance compared to non-treated animals (chi^2) ([6]; day 5): S | percentage of animals which have not yet shown the appearance of cataracts ([6]; day 6): 37.5% | significance compared to non-treated animals (chi^2) ([6]; day 6): S | percentage of animals which have not yet shown the appearance of cataracts ([6]; day 10): 37.5% | significance compared to non-treated animals (chi^2) ([6]; day 10): S | percentage of animals which have not yet shown the appearance of cataracts ([6]; day 12): 28% | significance compared to non-treated animals (chi^2) ([6]; day 12): S | percentage of animals which have not yet shown the appearance of cataracts ([6]; day 16): 19% | significance compared to non-treated animals (chi^2) ([6]; day 16): S | percentage of animals which have not yet shown the appearance of cataracts ([6]; day -4): 100% | percentage reduction of capillary permeability ([7]; 400 mg/kg i.p.): 30% | percentage reduction of capillary permeability ([7]; 800 mg/kg i.p.): 37%
